The experiment deals with HCV pseudoparticles (genotype 1a HCV E1 and E2 envelope, H77C isolate). Briefly: microbe, parasite or virus in culture. In kind it is cell-based. The settings on record: Hepatitis C virus.
The mark [1] stands for this setting: Huh-7, 48 h, HCV pseudoparticles (genotype 1a, H77C) in Huh7 cells, average of duplicate, luciferase 2 days after infection.
[2] abbreviates: Huh-7, read-out: Activity (EC50 class), HCV pseudoparticles (genotype 1a, H77C) in Huh7 cells, EC50 expressed as class A/B.
[3] abbreviates: Huh-7, 48 h, read-out: Activity (EC50 class), HCV pseudoparticle infection of Huh7 cells, luciferase 2 days after infection, EC50 expressed as class A/B.
The mark [4] stands for this setting: Huh-7, 48 h, read-out: Activity (EC50 class), HCV pseudoparticles, Huh7 cells, luciferase 2 days after infection, average of duplicates.

The structures appear in SMILES notation. Like-named read-outs stand apart in the source and are kept apart here.

The values below come from patent publication US8916702B2 (priority 2012, dated 2014).

In the case of `COC(=O)[C@H](CCNC(=O)C(=O)Nc1ccc(-n2cnc(Cl)c2Cl)cc1)NC(=O)c1ccc(Nc2nc(NC3(c4ccc(Cl)cc4)CC3)nc(OCC(F)(F)F)n2)cc1` [Compound 3124], the EC50 is 18.2 nM under setting [1] and 0.01 to 10 nM under setting [2].

On to `COC(=O)[C@H](CNC(=O)C(=O)NCc1ccc(OC)cc1)NC(=O)c1ccc(Nc2nc(NC3(c4ccc(Cl)cc4)CC3)nc(OCC(F)(F)F)n2)cc1` [Compound 1153], for which the EC50 under setting [3] lay in the range of 0.01 to 10 nM.

On to `Cn1cc(NC(=O)C(=O)NCC[C@H](NC(=O)c2ccc(Nc3nc(NC4(c5ccc(Cl)cc5)CC4)nc(OCC(F)(F)F)n3)cc2)C(=O)O)cn1` [Compound 1268], for which, under setting [3], the EC50 was 0.01 to 10 nM.

For the compound `COC(=O)[C@H](CCNC(=O)C(=O)NC1CCC(F)(F)CC1)NC(=O)c1ccc(Nc2nc(NC3(c4ccc(Cl)cc4)CC3)nc(OCC(F)(F)F)n2)cc1` [Compound 1099], the EC50 under setting [3] was 0.01 to 10 nM.

In the case of `O=C(NCC[C@H](NC(=O)c1ccc(Nc2nc(NC3(c4ccc(Cl)cc4)CC3)nc(OCC(F)(F)F)n2)cc1)C(=O)O)C(=O)Nc1cccc(-c2cnco2)c1` [Compound 3621], under setting [4], the EC50 was in the range of 0.01 to 10 nM.

Regarding `COC(=O)[C@H](CNC(=O)C(=O)NCC1CC[C@H]2C[C@@H]1C2(C)C)NC(=O)c1ccc(Nc2nc(NC3(c4ccc(Cl)cc4)CC3)nc(OCC(F)(F)F)n2)cc1` (some centres unmarked) [Compound 1453], the EC50 under setting [3] lay within 0.01 to 10 nM.

As for `CS(=O)(=O)c1cccc(NC(=O)C(=O)NCC[C@H](NC(=O)c2ccc(Nc3nc(NC4(c5ccc(Cl)cc5)CC4)nc(OCC(F)(F)F)n3)cc2)C(=O)O)c1` [Compound 3632], under setting [4], the EC50 is 0.01 to 10 nM.

For the compound `COC(=O)[C@H](CNC(=O)C(=O)N[C@H]1C[C@H]1c1ccccc1)NC(=O)c1ccc(Nc2nc(NC3(c4ccc(Cl)cc4)CC3)nc(OCC(F)(F)F)n2)cc1` [Compound 1294], under setting [3], the EC50 lay within 0.01 to 10 nM.

On to `Nc1ccc(NC(=O)C(=O)NCC[C@H](NC(=O)c2ccc(Nc3nc(NC4(c5ccc(Cl)cc5)CC4)nc(OCC(F)(F)F)n3)cc2)C(=O)O)cn1` [Compound 3630], for which the EC50 under setting [4] lay within 0.01 to 10 nM.

On to `COc1ccc(-c2ccccc2)c(NC(=O)C(=O)NCC(C)(C)CNC(=O)c2ccc(Nc3nc(NC4(c5ccc(Cl)cc5)CC4)nc(OCC(F)(F)F)n3)cc2)c1` [Compound 3014], for which the EC50 under setting [2] was in the range of 0.01 to 10 nM.

`COC(=O)/C(CCNC(=O)C(=O)Nc1cccc(-c2ccncc2)c1)=N\C(=O)c1ccc(Nc2nc(NC3(c4ccc(Cl)cc4)CC3)nc(OCC(F)(F)F)n2)cc1` [Compound 3591]: under setting [2], the EC50 was 0.01 to 10 nM.

On to `CCN(CC)CCNC(=O)c1ccc(NC(=O)C(=O)NCC[C@H](NC(=O)c2ccc(Nc3nc(NC4(c5ccc(Cl)cc5)CC4)nc(OCC(F)(F)F)n3)cc2)C(=O)OC)cc1` [Compound 3117], for which the EC50 under setting [2] lay within 0.01 to 10 nM.

`CC(C)(CNC(=O)C(=O)Nc1ccc(C#N)cc1)CNC(=O)c1ccc(Nc2nc(NC3(c4ccc(Cl)cc4)CC3)nc(OCc3ccccc3F)n2)cc1` [Compound 3853]: the EC50 under setting [4] was in the range of 0.01 to 10 nM.

As for `O=C(Nc1cccc(F)c1)C(=O)N1CCCC(CNC(=O)c2ccc(Nc3nc(NC4(c5ccc(Cl)cc5)CC4)nc(OCC(F)(F)F)n3)cc2)C1` (centres unmarked) [Compound 3479], the EC50 under setting [2] was in the range of 0.01 to 10 nM.

On to `O=C(Nc1ccc(F)cc1)C(=O)N(CCO)CCCNC(=O)c1ccc(Nc2nc(NC3(c4ccc(Cl)cc4)CC3)nc(OCC(F)(F)F)n2)cc1` [Compound 3499], for which the EC50 is 0.46 nM under setting [1] and 0.01 to 10 nM under setting [2].

The compound `CC(C)(CNC(=O)C(=O)Nc1ccccc1)CNC(=O)c1ccc(Nc2nc(NC3(c4ccc(Cl)cc4)CC3)nc(OCC(F)(F)F)n2)cc1` [Compound 1035, N1-(3-(4-(4-(1-(4-chlorophenyl)cyclopropylamino)-6-(2,2,2-trifluoroethoxy)-1,3,5-triazin-2-ylamino)benzamido)-2,2-dimethylpropyl)-N2-phenyloxalamide] gave an EC50 (Huh-7, 48 h, HCV pseudoparticle infection of Huh7 cells, luciferase 2 days after infection, average of duplicates) of 0.03 nM.

As to `NC(=O)C(=O)NCC(O)CNC(=O)c1ccc(Nc2nc(NC3(c4ccc(Cl)cc4)CC3)nc(OCC(F)(F)F)n2)cc1` (centres unmarked) [Compound 3458], the EC50 under setting [2] lay within 0.01 to 10 nM.

Consider `CC(C)(CNC(=O)c1ccc(Nc2nc(NC3(c4ccc(Cl)cc4)CC3)nc(OCC(F)(F)F)n2)cc1)NC(=O)C(=O)Nc1nccs1` [Compound 3437], for which, under setting [2], the EC50 fell in the range of 0.01 to 10 nM.
